Test results taken from patent US10597388B2, “Pyridazinone herbicides” (FMC CORPORATION, priority 2014, dated 2020).

How the values were obtained:
Format in all cases: in vivo
[1] = system: barley, winter (winter barley, Hordeum vulgare); assay: Test D controlled growth environment herbicide test, pre- and postemergence
Procedure, shortened: (§1)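 Pre-emergence: seeds sown in silt loam soil were sprayed with compound in a non-phytotoxic solvent mix containing surfactant. Post-emergence: plants at 2 to 18 cm (1- to 4-leaf stage) in peat moss/vermiculite medium got the same formulation. Visual 0–100 rating versus controls after 14 to 21 d.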

[2] = system: blackgrass (Alopecurus myosuroides); assay: as above
Procedure, shortened: as §1

[3] = system: chamomile (scentless chamomile, Matricaria inodora); assay: as above
Procedure, shortened: as §1

[4] = system: deadnettle (henbit deadnettle, Lamium amplexicaule); assay: as above
Procedure, shortened: as §1

[5] = system: field poppy (Papaver rhoeas); assay: as above
Procedure, shortened: as §1

[6] = system: foxtail, green (green foxtail, Setaria viridis); assay: as above
Procedure, shortened: as §1

[7] = system: lambsquarters (Chenopodium album); assay: as above
Procedure, shortened: as §1

[8] = system: mustard, wild (wild mustard, Sinapis arvensis); assay: as above
Procedure, shortened: as §1

[9] = system: radish, wild (wild radish, Raphanus raphanistrum); assay: as above
Procedure, shortened: as §1

[10] = system: windgrass (Apera spica-venti); assay: as above
Procedure, shortened: as §1

[11] = system: waterhemp_RES1 (ALS & Triazine resistant common waterhemp, Amaranthus rudis); assay: Test E greenhouse herbicide test, postemergence
Procedure, shortened: (§2)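 Visual injury scored 0 (no effect) to 100 (complete control) versus untreated plants, 14 to 21 d after treatment in the greenhouse. Plants were treated postemergence at 1- to 4-leaf stage, 2–18 cm height, in peat-moss/vermiculite medium.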

[12] = system: waterhemp_RES2 (ALS & HPPD resistant common waterhemp, Amaranthus rudis); assay: Test E greenhouse herbicide test, postemergence
Procedure, shortened: as §2

[13] = Postemergence, 31 g ai/ha, scale 0 to 100 (0 no effect, 100 complete control)
[14] = Postemergence, 125 g ai/ha, visual rating on scale 0 (no effect) to 100 (complete control), 14 to 21 d
[15] = Postemergence, 250 g ai/ha, scale 0 to 100 (0 no effect, 100 complete control)
[16] = Preemergence, 62 g ai/ha, scale 0 to 100 (0 no effect, 100 complete control)
[17] = Preemergence, 125 g ai/ha, scale 0 to 100 (0 no effect, 100 complete control)
[18] = Preemergence, 250 g ai/ha, scale 0 to 100, 0 no effect, 100 complete control
[19] = postemergence, 62 g ai/ha, scale 0 to 100, 0 no effect, 100 complete control
[20] = 31 g ai/ha, visual, scale 0 no effect to 100 complete control
[21] = 125 g ai/ha, scale 0 to 100 (0 no effect, 100 complete control)
[22] = 250 g ai/ha, scale 0 to 100 (0 no effect, 100 complete control)

Cc1nn(C)c(=O)c(-c2cccc3ccc(Br)cc23)c1O [Compound 126]
Barley, Winter plant response rating [1, 13]: 0 | Plant response rating, Barley, Winter [1, 14]: 0 | Plant response rating, Barley, Winter [1, 15]: 0 | Plant response rating (scale of 0 to 100), Barley, Winter ([1]; Preemergence, 31 g ai/ha): 0 | Plant response rating, Barley, Winter [1, 16]: 0 | Plant response rating, Barley, Winter [1, 17]: 0 | Plant response rating, Barley, Winter [1, 18]: 5 | Plant response rating, Barley, Winter [1, 19]: 5 | Blackgrass plant response rating [2, 13]: 15 | Plant response rating, Blackgrass [2, 14]: 30 | Plant response rating, Blackgrass [2, 15]: 45 | Plant response rating (scale of 0 to 100), Blackgrass ([2]; Preemergence, 31 g ai/ha): 25 | Plant response rating, Blackgrass [2, 16]: 45 | Plant response rating, Blackgrass [2, 17]: 55 | Plant response rating, Blackgrass [2, 18]: 65 | Plant response rating, Blackgrass [2, 19]: 20 | Chamomile plant response rating [3, 13]: 70 | Plant response rating, Chamomile [3, 14]: 98 | Plant response rating, Chamomile [3, 15]: 100 | Plant response rating (scale of 0 to 100), Chamomile ([3]; Preemergence, 31 g ai/ha): 85 | Plant response rating (scale of 0 to 100), Chamomile ([3]; Preemergence, 62 g ai/ha): 100 | Plant response rating, Chamomile [3, 17]: 100 | Plant response rating, Chamomile [3, 18]: 100 | Plant response rating, Chamomile [3, 19]: 95 | Deadnettle plant response rating [4, 13]: 40 | Plant response rating, Deadnettle [4, 14]: 80 | Plant response rating, Deadnettle [4, 15]: 85 | Plant response rating (scale of 0 to 100), Deadnettle ([4]; Preemergence, 31 g ai/ha): 0 | Plant response rating (scale of 0 to 100), Deadnettle ([4]; Preemergence, 62 g ai/ha): 45 | Plant response rating, Deadnettle [4, 17]: 70 | Plant response rating, Deadnettle [4, 18]: 80 | Plant response rating, Deadnettle [4, 19]: 70 | Field Poppy plant response rating [5, 13]: 25 | Plant response rating, Field Poppy [5, 14]: 75 | Plant response rating, Field Poppy [5, 15]: 85 | Plant response rating (scale of 0 to 100), Field Poppy ([5]; Preemergence, 31 g ai/ha): 30 | Plant response rating (scale of 0 to 100), Field Poppy ([5]; Preemergence, 62 g ai/ha): 45 | Plant response rating, Field Poppy [5, 17]: 90 | Plant response rating, Field Poppy [5, 18]: 95 | Plant response rating, Field Poppy [5, 19]: 55 | Foxtail, Green plant response rating [6, 13]: 10 | Plant response rating, Foxtail, Green [6, 14]: 25 | Plant response rating, Foxtail, Green [6, 15]: 25 | Plant response rating (scale of 0 to 100), Foxtail, Green ([6]; Preemergence, 31 g ai/ha): 20 | Plant response rating (scale of 0 to 100), Foxtail, Green ([6]; Preemergence, 62 g ai/ha): 20 | Plant response rating, Foxtail, Green [6, 17]: 25 | Plant response rating, Foxtail, Green [6, 18]: 45 | Plant response rating, Foxtail, Green [6, 19]: 10 | Lambsquarters plant response rating [7, 13]: 90 | Plant response rating, Lambsquarters [7, 14]: 100 | Plant response rating, Lambsquarters [7, 15]: 100 | Plant response rating (scale of 0 to 100), Lambsquarters ([7]; Preemergence, 31 g ai/ha): 100 | Plant response rating (scale of 0 to 100), Lambsquarters ([7]; Preemergence, 62 g ai/ha): 100 | Plant response rating, Lambsquarters [7, 17]: 75 | Plant response rating, Lambsquarters [7, 18]: 100 | Plant response rating, Lambsquarters [7, 19]: 98 | Mustard, Wild plant response rating [8, 13]: 80 | Plant response rating, Mustard, Wild [8, 14]: 90 | Plant response rating, Mustard, Wild [8, 15]: 100 | Plant response rating (scale of 0 to 100), Mustard, Wild ([8]; Preemergence, 31 g ai/ha): 60 | Plant response rating (scale of 0 to 100), Mustard, Wild ([8]; Preemergence, 62 g ai/ha): 70 | Plant response rating, Mustard, Wild [8, 17]: 70 | Plant response rating, Mustard, Wild [8, 18]: 98 | Plant response rating, Mustard, Wild [8, 19]: 80 | Radish, Wild plant response rating [9, 13]: 40 | Plant response rating, Radish, Wild [9, 14]: 75 | Plant response rating, Radish, Wild [9, 15]: 95 | Plant response rating (scale of 0 to 100), Radish, Wild ([9]; Preemergence, 31 g ai/ha): 5 | Plant response rating (scale of 0 to 100), Radish, Wild ([9]; Preemergence, 62 g ai/ha): 15 | Plant response rating, Radish, Wild [9, 17]: 75 | Plant response rating, Radish, Wild [9, 18]: 90 | Plant response rating, Radish, Wild [9, 19]: 70 | Windgrass plant response rating [10, 13]: 0 | Plant response rating, Windgrass [10, 14]: 30 | Plant response rating, Windgrass [10, 15]: 55 | Plant response rating (scale of 0 to 100), Windgrass ([10]; Preemergence, 31 g ai/ha): 25 | Plant response rating (scale of 0 to 100), Windgrass ([10]; Preemergence, 62 g ai/ha): 35 | Plant response rating, Windgrass [10, 17]: 75 | Plant response rating, Windgrass [10, 18]: 85 | Plant response rating, Windgrass [10, 19]: 20 | Plant response rating, Waterhemp_RES1 [11, 20]: 75 | Plant response rating, Waterhemp_RES1 [11, 21]: 90 | Plant response rating, Waterhemp_RES1 [11, 22]: 100 | Plant response rating, Waterhemp_RES2 [12, 20]: 55 | Plant response rating, Waterhemp_RES2 [12, 21]: 70 | Plant response rating, Waterhemp_RES2 [12, 22]: 85
